According to US10508120B2, “TYK2 inhibitors and uses thereof” (Nimbus Lakshmi, Inc., priority 2017, dated 2019):

How the values were obtained:
[1] = target: human TYK2 (JH2domain-pseudokinase) (Homo sapiens (Human), UniProt P29597); test: TYK2 JH2 Domain Binding Assay (KINOMEscan)
Method in brief: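 The construct was human TYK2 G556–D888 fused to the NFkB DNA-binding domain and expressed in HEK293 cells; unpurified extract was incubated with compound and liganded beads for 1 hour at room temperature.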

Tyk2 kinase domain (DH1) = Tyk2 kinase domain (DH1) (Homo sapiens (Human), UniProt P29597); test: Tyk2 Radioactive Kinase Assay; assay type: biochemical; conditions: 10 μM compound, 10 μM ATP; for inhibition at 10 µM: read-out: Tyk2 JH1% Inhibition @ 10 μM
Chain of Tyk2 kinase domain (DH1) (P29597 897-1176): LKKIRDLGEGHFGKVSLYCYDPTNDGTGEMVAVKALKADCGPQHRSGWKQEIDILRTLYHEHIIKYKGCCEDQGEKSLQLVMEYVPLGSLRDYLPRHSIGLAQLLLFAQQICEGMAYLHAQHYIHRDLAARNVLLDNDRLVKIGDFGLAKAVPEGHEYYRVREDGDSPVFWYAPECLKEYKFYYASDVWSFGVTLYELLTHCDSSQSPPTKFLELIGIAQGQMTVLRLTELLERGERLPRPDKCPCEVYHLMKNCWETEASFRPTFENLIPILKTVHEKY
Method in brief: (§1)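 Values are single-concentration percent inhibition figures. They were obtained with 10 μM compound in a radioactivity-based kinase assay run separately on each enzyme.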

JAK2 kinase domain (JH1) = JAK2 kinase domain (JH1) (Homo sapiens (Human), UniProt O60674); test: JAK2 Radioactive Kinase Assay; assay type: biochemical; conditions: 10 μM compound, 10 μM ATP; for inhibition at 10 µM: read-out: JAK2 JH1% Inhibition @ 10 μM
Chain of JAK2 kinase domain (JH1) (O60674 849-1124): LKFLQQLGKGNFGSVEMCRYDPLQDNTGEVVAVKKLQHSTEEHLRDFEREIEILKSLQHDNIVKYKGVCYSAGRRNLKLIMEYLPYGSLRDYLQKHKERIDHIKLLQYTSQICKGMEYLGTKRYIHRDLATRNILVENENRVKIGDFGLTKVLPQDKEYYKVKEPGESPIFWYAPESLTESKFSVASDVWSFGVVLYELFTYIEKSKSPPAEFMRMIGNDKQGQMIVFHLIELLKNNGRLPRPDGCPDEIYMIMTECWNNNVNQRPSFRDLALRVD
Method in brief: as §1

[2] = target: Tyk2/JAK2 (heterodimeric complex) (Homo sapiens (Human), UniProt P29597); test: IL-12 Induced pSTAT4 in Human PBMC; assay type: cell-based; conditions: 1.7 ng/mL IL-12
Chain of Tyk2/JAK2 (heterodimeric complex) (P29597 whole entry, other chains not shown): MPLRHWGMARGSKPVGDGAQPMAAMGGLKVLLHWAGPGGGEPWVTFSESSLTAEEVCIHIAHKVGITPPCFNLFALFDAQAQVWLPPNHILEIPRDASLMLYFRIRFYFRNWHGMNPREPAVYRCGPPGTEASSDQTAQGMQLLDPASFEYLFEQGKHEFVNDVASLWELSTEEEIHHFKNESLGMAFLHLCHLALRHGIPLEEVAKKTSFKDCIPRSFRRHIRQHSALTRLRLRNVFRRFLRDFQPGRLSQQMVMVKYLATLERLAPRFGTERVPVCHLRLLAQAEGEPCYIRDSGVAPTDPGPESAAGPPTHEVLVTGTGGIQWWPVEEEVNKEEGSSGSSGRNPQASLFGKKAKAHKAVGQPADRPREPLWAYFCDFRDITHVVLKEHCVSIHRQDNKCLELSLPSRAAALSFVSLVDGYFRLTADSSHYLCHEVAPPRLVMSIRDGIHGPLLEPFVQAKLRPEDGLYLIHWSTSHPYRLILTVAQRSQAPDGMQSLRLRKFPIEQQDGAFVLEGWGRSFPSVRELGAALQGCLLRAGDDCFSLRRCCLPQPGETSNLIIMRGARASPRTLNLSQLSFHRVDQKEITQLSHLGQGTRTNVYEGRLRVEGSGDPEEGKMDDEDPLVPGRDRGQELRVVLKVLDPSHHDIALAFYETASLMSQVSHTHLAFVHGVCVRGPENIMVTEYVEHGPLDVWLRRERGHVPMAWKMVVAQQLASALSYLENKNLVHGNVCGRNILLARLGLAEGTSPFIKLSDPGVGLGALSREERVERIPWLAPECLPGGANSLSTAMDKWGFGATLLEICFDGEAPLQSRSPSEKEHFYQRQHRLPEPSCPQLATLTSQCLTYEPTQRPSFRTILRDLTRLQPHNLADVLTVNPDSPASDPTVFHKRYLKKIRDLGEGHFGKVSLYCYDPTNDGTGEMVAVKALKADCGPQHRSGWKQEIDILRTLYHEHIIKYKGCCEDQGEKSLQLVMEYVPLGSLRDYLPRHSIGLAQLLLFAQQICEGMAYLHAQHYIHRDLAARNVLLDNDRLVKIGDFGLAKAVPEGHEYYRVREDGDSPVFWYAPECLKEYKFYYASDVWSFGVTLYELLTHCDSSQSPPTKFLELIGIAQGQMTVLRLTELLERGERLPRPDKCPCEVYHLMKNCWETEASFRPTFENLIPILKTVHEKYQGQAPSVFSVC
Source text: The IL-12 Induced pSTAT4 assay evaluates the inhibition of IL-12 induced STAT4 phophorylation mediated by Tyk2/JAK2 (heterodimeric complex).

[3] = target: JAK2/JAK2 homdimeric complex (Homo sapiens (Human), UniProt O60674); test: GM-CSF Induced pSTAT5 in Human PBMC; assay type: cell-based; conditions: GM-CSF 5 ng/mL for 20 minutes, pSTAT5 by MSD, read-out: PBMC_GMCSF_pSTAT5 IC50
Chain of JAK2/JAK2 homdimeric complex (O60674 whole entry): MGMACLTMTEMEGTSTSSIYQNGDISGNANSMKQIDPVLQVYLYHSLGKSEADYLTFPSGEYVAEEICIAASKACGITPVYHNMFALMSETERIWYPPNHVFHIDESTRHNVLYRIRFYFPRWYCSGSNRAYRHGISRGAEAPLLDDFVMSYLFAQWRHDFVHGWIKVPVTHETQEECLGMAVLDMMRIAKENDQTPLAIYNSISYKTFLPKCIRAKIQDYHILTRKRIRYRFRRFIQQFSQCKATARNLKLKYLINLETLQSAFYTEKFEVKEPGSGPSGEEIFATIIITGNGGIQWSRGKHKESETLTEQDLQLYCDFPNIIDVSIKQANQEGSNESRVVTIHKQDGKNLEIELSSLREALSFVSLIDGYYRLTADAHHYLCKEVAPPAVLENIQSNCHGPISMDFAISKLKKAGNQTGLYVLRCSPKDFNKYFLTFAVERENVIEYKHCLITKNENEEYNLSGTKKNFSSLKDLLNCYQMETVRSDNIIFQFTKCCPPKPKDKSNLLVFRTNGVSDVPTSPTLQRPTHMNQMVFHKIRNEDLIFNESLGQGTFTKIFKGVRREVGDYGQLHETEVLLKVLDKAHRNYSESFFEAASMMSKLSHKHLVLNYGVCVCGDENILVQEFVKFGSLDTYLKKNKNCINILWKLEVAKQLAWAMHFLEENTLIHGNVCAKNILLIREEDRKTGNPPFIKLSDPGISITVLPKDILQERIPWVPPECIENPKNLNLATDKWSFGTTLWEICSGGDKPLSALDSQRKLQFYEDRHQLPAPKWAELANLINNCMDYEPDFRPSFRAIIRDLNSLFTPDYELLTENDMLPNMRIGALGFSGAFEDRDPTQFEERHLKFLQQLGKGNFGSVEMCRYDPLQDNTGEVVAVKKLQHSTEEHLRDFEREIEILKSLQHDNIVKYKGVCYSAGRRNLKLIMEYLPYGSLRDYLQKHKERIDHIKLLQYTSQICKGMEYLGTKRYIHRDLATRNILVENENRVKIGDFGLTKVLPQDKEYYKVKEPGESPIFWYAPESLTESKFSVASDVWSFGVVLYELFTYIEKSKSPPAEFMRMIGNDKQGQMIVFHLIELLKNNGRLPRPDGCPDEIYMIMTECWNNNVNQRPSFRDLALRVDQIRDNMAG
Chain of JAK2/JAK2 homdimeric complex (P32927 17-897 partner): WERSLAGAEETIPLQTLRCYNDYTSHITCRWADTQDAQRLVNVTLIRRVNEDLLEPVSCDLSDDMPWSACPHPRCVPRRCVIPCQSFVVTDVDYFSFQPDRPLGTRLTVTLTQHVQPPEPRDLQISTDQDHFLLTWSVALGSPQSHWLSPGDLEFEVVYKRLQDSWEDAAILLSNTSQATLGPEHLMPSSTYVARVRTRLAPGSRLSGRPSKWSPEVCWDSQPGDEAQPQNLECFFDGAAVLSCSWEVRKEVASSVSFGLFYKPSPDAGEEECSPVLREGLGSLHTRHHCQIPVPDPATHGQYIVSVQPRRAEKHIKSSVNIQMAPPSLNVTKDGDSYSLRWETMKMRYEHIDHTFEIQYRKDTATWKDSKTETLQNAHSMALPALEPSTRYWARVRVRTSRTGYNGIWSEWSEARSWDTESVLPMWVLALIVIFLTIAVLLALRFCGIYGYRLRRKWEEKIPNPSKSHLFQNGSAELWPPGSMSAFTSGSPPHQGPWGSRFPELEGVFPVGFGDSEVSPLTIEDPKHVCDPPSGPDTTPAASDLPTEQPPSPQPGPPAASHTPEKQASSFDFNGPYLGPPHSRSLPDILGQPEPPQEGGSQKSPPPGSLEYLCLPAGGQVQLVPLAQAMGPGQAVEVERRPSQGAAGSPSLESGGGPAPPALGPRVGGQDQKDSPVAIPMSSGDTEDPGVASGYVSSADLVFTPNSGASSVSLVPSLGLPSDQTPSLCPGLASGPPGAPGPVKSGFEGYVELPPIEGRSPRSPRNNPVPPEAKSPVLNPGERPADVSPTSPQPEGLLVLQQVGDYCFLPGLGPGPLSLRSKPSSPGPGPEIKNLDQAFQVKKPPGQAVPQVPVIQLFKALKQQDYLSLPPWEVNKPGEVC

Chain of human TYK2 (JH2domain-pseudokinase) (P29597 556-888): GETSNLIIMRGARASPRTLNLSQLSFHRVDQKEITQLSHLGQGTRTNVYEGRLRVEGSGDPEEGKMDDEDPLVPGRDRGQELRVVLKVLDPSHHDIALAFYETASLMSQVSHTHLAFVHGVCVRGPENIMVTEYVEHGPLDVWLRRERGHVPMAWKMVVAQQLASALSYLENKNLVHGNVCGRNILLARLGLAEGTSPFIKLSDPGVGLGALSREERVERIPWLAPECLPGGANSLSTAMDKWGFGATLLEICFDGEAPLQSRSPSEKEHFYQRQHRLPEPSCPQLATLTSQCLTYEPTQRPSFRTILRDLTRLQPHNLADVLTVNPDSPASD

SMILES	Kd [1] [nM]	inhibition at 10 µM (Tyk2 kinase domain (DH1)) [%]	inhibition at 10 µM (JAK2 kinase domain (JH1)) [%]	IC50 [2] [nM]	IC50 [3] [nM]	Tyk2 JH1% Inhibition @ 10 μM (Tyk2 kinase domain (DH1))	JAK2 JH1% Inhibition @ 10 μM (JAK2 kinase domain (JH1))
CNc1cc(Nc2cccn([C@H]3CC[C@@H]3O)c2=O)nc2c(C(=O)N[C@@H]3C[C@@H]3F)cnn12 [I-916]		< 50	< 50	< 100	> 50000		
CNc1cc(Nc2cccn(C3CCCCC3)c2=O)nc2c(C(=O)N[C@@H]3CC[C@H]3O)cnn12 [I-943]		< 50	< 50	< 100	> 50000		
CNc1cc(-c2cn(CCN3CCN(C)CC3)c3ncccc23)nc2c(C(=O)N[C@H]3CC[C@@H]3OC)cnn12 [I-952]				100 to 500	> 2500	A (percent inhibition at 10 μM lower than 50)	A (percent inhibition at 10 μM lower than 50)
CNc1cc(-c2cn(C3CC3)c3ncccc23)nc2c(C(=O)N[C@H]3CC[C@H]3O)cnn12 [I-992, 5-(1-cyclopropyl-1H-pyrrolo[2,3-b]pyridin-3-yl)-N-((1S,2R)-2-hydroxycyclobutyl)-7-(methylamino)pyrazolo[1,5-a]pyrimidine-3-carboxamide]				< 100	> 50000	A (percent inhibition at 10 μM lower than 50)	A (percent inhibition at 10 μM lower than 50)
CNc1cc(-c2cn([C@H]3CCN(CCF)C3)c3ncccc23)nc2c(C(=O)N[C@@H]3C[C@@H]3F)cnn12 [I-1362]	0.2 to 1			< 100			
CNc1cc(-c2cn([C@@H]3CCCOC3)c3ncccc23)nc2c(C(=O)N[C@H]3CC[C@@H]3OC)cnn12 [I-1364]	0.2 to 1			< 100			
CNc1cc(Nc2cccn([C@@H]3CCCN(CCF)C3)c2=O)nc2c(C(=O)N[C@H]3CC[C@@H]3OC)cnn12 [I-1382]	< 0.2			< 100			
CNc1cc(-c2cn(C(C)C)c3ncc(F)cc23)nc2c(C(=O)N[C@H]3CC[C@H]3O)cnn12 [I-1387]	1 to 10			< 100			
CNc1cc(-c2cn(CCCO)c3ncccc23)nc2c(C(=O)N[C@H]3CC[C@@H]3OC)cnn12 [I-1388]	0.2 to 1			< 100			
CNc1cc(Nc2cccn([C@@H]3CC[C@@H]3O)c2=O)nc2c(C(=O)N[C@H]3CC[C@@H]3OC)cnn12 [I-1411]	1 to 10			< 100			

Second part, led by results:

Kd [1] [nM]	inhibition at 10 µM (Tyk2 kinase domain (DH1)) [%]	inhibition at 10 µM (JAK2 kinase domain (JH1)) [%]	IC50 [2] [nM]	IC50 [3] [nM]	SMILES	Tyk2 JH1% Inhibition @ 10 μM (Tyk2 kinase domain (DH1))	JAK2 JH1% Inhibition @ 10 μM (JAK2 kinase domain (JH1))
< 0.2	< 50	< 50	< 100		CNc1cc(Nc2cccn([C@H]3CCCN(CCF)C3)c2=O)nc2c(C(=O)N[C@@H]3C[C@@H]3F)cnn12 [I-900]		
			< 100	> 50000	CNc1cc(Nc2cccn(-c3cccc(F)c3)c2=O)nc2c(C(=O)N[C@@H]3CC[C@H]3O)cnn12 [I-946]	A (percent inhibition at 10 μM lower than 50)	A (percent inhibition at 10 μM lower than 50)
			< 100	> 50000	CNc1cc(Nc2cccn([C@@H]3CCC[C@H](OC)C3)c2=O)nc2c(C(=O)N[C@@H]3CC[C@H]3OC)cnn12 [I-995]	A (percent inhibition at 10 μM lower than 50)	A (percent inhibition at 10 μM lower than 50)
< 0.2			< 100		CNc1cc(-c2cn([C@H]3CCCOC3)c3ncccc23)nc2c(C(=O)N[C@H]3CC[C@@H]3OC)cnn12 [I-1365]		
1 to 10			< 100		CNc1cc(-c2cn([C@@H]3CCN(CCF)C3)c3ncccc23)nc2c(C(=O)N[C@@H]3C[C@@H]3F)cnn12 [I-1366]		
0.2 to 1			< 100		CNc1cc(Nc2cccn([C@H]3CCC[C@H](OC)C3)c2=O)nc2c(C(=O)N[C@@H]3CC[C@H]3OC)cnn12 [I-1374]		
0.2 to 1			< 100		CNc1cc(Nc2cccn([C@H]3CCN(CCF)C3)c2=O)nc2c(C(=O)N[C@H]3CC[C@@H]3OC)cnn12 [I-1381]		
0.2 to 1			< 100		CNc1cc(Nc2cccn([C@H]3CC[C@@H]3O)c2=O)nc2c(C(=O)N[C@H]3CC[C@@H]3OC)cnn12 [I-1385]		
0.2 to 1			< 100		CNc1cc(Nc2cccn(C3CC(F)(F)C3)c2=O)nc2c(C(=O)N[C@H]3CC[C@@H]3OC)cnn12 [I-1389]		
0.2 to 1			< 100		CNc1cc(Nc2cccn([C@H]3CCC[C@H](O)C3)c2=O)nc2c(C(=O)N[C@@H]3CC[C@H]3OC)cnn12 [I-1395]		
